What was measured:
Format in all cases: cell-based, human
MCF7 cells [1] = assay: SA-β-Gal staining of drug-treated MCF7 cells; conditions: treated 2-3 days with 50 nM doxorubicin or Taxol, stained 10-11 days after release from the drug
Method: Cells were washed in PBS, fixed for 3-5 minutes at room temperature in 2% formaldehyde and 0.2% glutaraldehyde (or in 3% formaldehyde alone), washed, and incubated at 37° C. in fresh senescence-associated β-Gal (SA-β-Gal) staining solution (1 mg/ml 5-bromo-4-chloro-3-indolyl β-D-galactoside (X-Gal), 20 mg/ml dimethylformamide; 40 mM citric acid/sodium phosphate, pH 6.0; 5 mM potassium ferrocyanide; 5 mM potassium ferricyanide; 150 mM NaCl; 2 mM MgCl2. Staining was evident following 2-4 hours of incubation and maximal staining was reached after in 12-16 hours. To detect lysosomal β-Gal, the staining solution was prepared with citric acid/sodium phosphate at pH 4.0 (Baselga et al., 1999, Proceedings of AACR NCI EORTC International Conference, Abstract 98).
Red and green filters are suitable for practice of the invention. For SA-β-Gal, a green filter (500 nm) is used to determine the total cytoplasmic area stained with red eosin and compared with the blue area stained for SA-β-Gal (600 nm) as determined using a red filter. […] It is recognized that there are various other staining or optical enhancement methods and filtering methods which can be used to optically enhance one particular area or feature over another cell feature (such as Fast green and eosin).
Cellular changes are induced by treatment with moderate doses of doxorubicin and Taxol in breast tumor-derived human cell lines. […]

MCF7 cells [2] = assay: Flow cytometric analysis of drug-treated MCF7 cells; conditions: 50 nM, 2-3 days
Method: Cellular changes are induced by treatment with moderate doses of doxorubicin and Taxol in breast tumor-derived human cell lines. MCF7 cells were treated for 2-3 days with 50 nM doxorubicin or Taxol (doses that induce growth inhibition and cellular death as measured by flow cytometry; as described by, e.g., Dolbeare et al., 1983, Proc. Natl. Acad. Sci. U.S.A. 80:5573-77) and then were stained for SA-β-Gal expression 10-11 days after release from the drug.

MCF7 cells [3] = assay: p53 and p21CIPI/WAF1 immunostaining with image analysis in MCF7 cells; conditions: MCF7 treated for 3 days with doxorubicin
Text: The expression of proteins associated with senescence or apoptosis are quantitated by image analysis using a suitable primary antibody (such as Ab-2 for p53, or Ab-1 for WAF1, HSP60, or caspase 3), secondary antibody (such as rabbit anti-mouse IgG), and tertiary ABC complex.
Tertiary ABC complexes are visualized by treating the sections with diaminobenizidine (DAB) stain under appropriate conditions. In a second step, the tissue is counterstained with another optical enhancement factor, preferably ethyl green. The resulting preparation has green nuclei with varying degrees of brown diaminobenzidine (DAB) precipitate localized to the nuclei (and indicating the level of expression of p53, p21, p16, WAF1, HSP60, or caspase-3 protein). […] Spectral studies have shown that the ethyl green stain offers good spectral separation from the DAB precipitate of the immunoperoxidase technique such that different features of the image can be readily separated by filtering at two different wavelengths. […]
MCF7 cells were treated for 3 days with doxorubicin and then stained for p53 and p21^CIPI/WAF1 expression. Cells were cultured, stained, and analyzed as described above for SA-β-Gal using appropriate antibodies.

Row | Compound | Percentage of Cells Expressing SA-β-Gal (MCF7 cells [1]) [%] | Cellular outcome in flow cytometry histogram / SA-β-Gal+ morphology (MCF7 cells [2]) | Cells stained for p21CIPI/WAF1 (% Cells) (MCF7 cells [3]) | Cells stained for p53 (% Cells) (MCF7 cells [3])
1 | COc1cccc2c1C(=O)c1c(O)c3c(c(O)c1C2=O)C[C@@](O)(C(=O)CO)C[C@@H]3O[C@H]1C[C@H](N)[C@H](O)[C@H](C)O1 [Doxorubicin, doxorubicin] | 24 | resulted in senescence and blocks at G1, G2, and G2M | 50.81 ± 6 | 23.93 ± 7
2 | CC(=O)O[C@H]1C(=O)[C@@]2(C)[C@H]([C@H](OC(=O)c3ccccc3)[C@]3(O)C[C@H](OC(=O)[C@H](O)[C@@H](NC(=O)c4ccccc4)c4ccccc4)C(C)=C1C3(C)C)[C@]1(OC(C)=O)CO[C@@H]1C[C@@H]2O [Taxol] | 13 | apoptosis is evident by the hypodiploid peak |  | 
